Values quoted from earlier work in patent US20080032954A1, “Vascular Damaging Agents for Administration as an Intravenous Infusion” (priority 2004, published 2008).

Tests used:
[1] = patients, 30 minute intravenous infusion once weekly
[2] = test system: proliferating endothelial cells
tumour = conditions: nude rats
[3] = phase I study, patients with advanced cancer
[4] = patients, intravenous infusion at three-week intervals
[5] = 20 mg/kg as 24-hour subcutaneous infusion versus 5 to 10 second IV bolus

SMILES: COc1ccc(/C=C\c2cc(OC)c(OC)c(OC)c2)cc1NC(=O)[C@@H](N)CO [AVE8062A]
- hypotension [1]: instances of asymptomatic hypotension

SMILES: COc1cc2c(c(OC)c1OC)-c1ccc(OP(=O)(O)O)cc1[C@@H](NC(C)=O)CC2 [ZD6126, (5S)-5-(acetylamino)-9,10,11-trimethoxy-6,7-dihydro-5H-dibenzo[a,c]cyclohepten-3-yl dihydrogen phosphate]
- effect on tubulin cytoskeleton and cell shape [2]: disrupts the tubulin cytoskeleton causing rounding up and/or detachment of proliferating endothelial cells
- ischemic changes on ECG (one of the two patients with troponin I elevation, 10 minute IV infusion once every three weeks): reversible grade 2 ischemic changes on ECG
- elevation in troponin I (patients, 10 minute intravenous infusion once every three weeks): two patients exhibited grade 3 transient asymptomatic elevation in troponin I
- blood pressure change (the other patient with troponin I elevation, 10 minute IV infusion once every three weeks): increase in blood pressure one hour after dosing
- toxicity compared to single intravenous bolus (tumour; [5]): significant increases in toxicity
- tumour necrosis compared to single intravenous bolus (tumour; [5]): no increase in tumour necrosis
- tolerability (tumour; 50 mg/kg as 24-hour subcutaneous infusion, in contrast to bolus of the same dose): not tolerated

SMILES: COc1ccc(/C=C\c2cc(OC)c(OC)c(OC)c2)cc1OP(=O)(O)O [combretastatin A4 phosphate]
- hemodynamic and cardiac toxic events [3]: numerous hemodynamic and cardiac toxic events were observed

SMILES: COc1ccc(/C=C\c2cc(OC)c(OC)c(OC)c2)cc1O [combretastatin A4]
- toxicity profile, 10-minute versus 60-minute infusion [4]: no difference in the toxicity profile
